According to ChEMBL document CHEMBL1153771, “Gamma-lactone carbazoles from Clausena anisata” (2009):
Active and inactive are the calls of the source. No cut-off for these calls is given here.

Tested on: HL-60
Assay: Cytotoxicity against human HL60 cells assessed as cell viability at 30 uM after 24 hrs by MTS assay
Type: functional
Conditions: for viability at 30 µM: HL-60, 24 h, read-out: Activity

| Compound | viability at 30 µM [%] | Activity |
| --- | --- | --- |
| C=C(C)C1Cc2c(cc(OC)c3[nH]c4ccccc4c23)C(=O)O1 (stereo not drawn) [CLAUSAMINE B] | 80.3 |  |
| COC(=O)c1cc2c(cc1O)[nH]c1ccccc12 |  | inactive |
| O=Cc1cc2c(cc1O)[nH]c1ccccc12 |  | inactive |
| COC(=O)c1cc(O)c2[nH]c3ccccc3c2c1CC=C(C)C |  | inactive |
| COC(=O)c1cc(OC)c2[nH]c3ccccc3c2c1CC=C(C)C |  | inactive |
| COC(=O)c1cc(OC)c2[nH]c3ccccc3c2c1/C=C/C(C)(C)O [CLAUSAMINE E] | 47.3 |  |
| COc1cc2[nH]c3ccccc3c2cc1C=O |  | inactive |
| COc1cc2c(c3c1[nH]c1ccccc13)CC(C(C)(C)O)OC2=O (stereo not drawn) [CLAUSAMINE C] | 79.7 |  |
